Residues, ends and D or L forms follow the SMILES beside them.
Biological target: T1, Human insulin (HI) amyloid fibrillation (Homo sapiens, UniProt P01308)
T1 construct: Insulin is a covalent dimer of two polypeptide chains (chain A and chain B) having 21 and 30 amino acid residues, respectively
Experiment: ThT fluorescence assay of insulin fibrillation
Assay type: biochemical
Conditions: for IC50: 3-parameter dose response fit of normalized ThT intensity at 483 nm vs log [peptide], insulin incubated at 60°C for 72 h, 50 mM acetate buffer pH 2.0, peptide 0-750 μM, triplicates, read-out: IC50 against insulin aggregation; for percent inhibition of aggregation (ThT fluorescence): insulin incubated at 60°C for 72 h with peptide (Supplementary Figure S2), concentration not given
Method: Stock solution of insulin was prepared by dissolving insulin lyophilized powder in 50 mM acetate buffer, pH 2.0, and insulin concentration was determined by measuring absorbance at 276 nm, with the extinction coefficients of […] for 1 mg/ml. Fibrils were prepared by incubating insulin solution at 60°C for 72 h.
ThT stock solution was prepared by dissolving ThT in double distilled water, and the resulting solution was passed through a 0.2 micron millipore filter. The concentration of ThT was determined by measuring absorbance at 412 nm with a molar extinction coefficient of 36,600 M^−1cm^−1. ThT fluorescence assay was carried out on Shimadzu fluorescence spectrophotometer (RF-5301 PC). Insulin samples were incubated with or without peptides; from each set, samples were withdrawn at definite time intervals and mixed with ThT to have the final protein and dye concentration of 20 μM. The ThT was excited at 440 nm, and fluorescence spectra were recorded from 460 to 650 nm. Buffer (pH 2.0) was used for dilution, and spectra were corrected for the respective blanks. All measurements were performed in triplicates. All curves were fitted as described previously (Chaturvedi et al., [2015]).

T1 sequence (P01308 25-54 limits assumed): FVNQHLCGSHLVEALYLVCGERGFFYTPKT
T1 sequence (P01308 90-110 limits assumed): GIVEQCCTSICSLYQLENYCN

IC50 | percent inhibition of aggregation (ThT fluorescence) | SMILES
278 µM | 82% | CC[C@H](C)[C@H](NC(=O)[C@@H](N)C(C)C)C(=O)N[C@@H](Cc1ccccc1)C(=O)N[C@@H](Cc1ccc(O)cc1)C(=O)N[C@H](C(=O)O)[C@@H](C)O [Peptide P4, Val-Ile-Phe-Tyr-Thr] (H-VIFYT-OH)
446 µM | 56% | CC(C)[C@H](N)C(=O)N[C@H](C(=O)N[C@H](C(=O)N[C@H](C(=O)N[C@H](C(=O)O)C(C)C)C(C)C)C(C)C)C(C)C [Peptide P5, Val-Val-Val-Val-Val] (H-VVVVV-OH)
